From patent publication US20180264245A1, “Skin Care Applicator” (The Procter & Gamble Company, priority 2017, published 2018)
Where a SMILES comes first, the peptide text is derived from it.

Experiments:
[1] = Inositol in vitro skin penetration study (Franz Diffusion Cell assay); format: in vitro ADME, human; settings: 0.5% inositol product, 24 hours; magnet with vibration vs. finger application or applicator incorporating a magnet; particularly in the epidermis; FIG. 6
Protocol: Skin penetration was measured using the Franz Diffusion Cell assay. Split-thickness (dermatomed) human cadaver skin was thawed under ambient conditions, cut into appropriately sized sections, and mounted in standard Franz-type diffusion cells (0.79 cm^2 surface area) maintained at about 37° C. The receptor compartments were filled with 5 mL phosphate buffered saline (PBS-pH 7.4) that included 1% polysorbate-20 and 0.02% sodium azide, and the skin was allowed to equilibrate for two hours. The cells were qualified upon ^3H20 flux through the mounted skin (150 μL of ^3H20 applied for five minutes and removed; receptor fluid was collected after one hour and analyzed using scintillation spectrometry). […] Where indicated, aliquots of the test products/formulations were spiked with the appropriate radioactive material (^3H-inositol, ^14C-niacinamide, ^14[…] or ^14C-retinyl propionate) with approximately 3 μCi per 300 mg product aliquot, mixed and assayed for total radioactivity in triplicate using Ultima Gold [Perkin-Elmer] liquid scintillation cocktail (LSC) and liquid scintillation counting. […] Active materials in receptor phase, filter paper wipes and solubilized skin samples were quantified using liquid scintillation. […]

[2] = unit not given; cited from earlier work
[3] = Pal KTTKS in vivo skin penetration study (tape stripping); parameters: species or system human; key to significance of mean μg PalKTTKS/μg skin of Strip 6-10: “s” indicates significant difference vs. mean of passive (p < 0.1); settings: for μg PalKTTKS/μg skin of Strip 6-10: cream; for Enhancement for strip 6-10: w Vibration vs. w/o Vibration
Protocol: An in vivo skin penetration study was conducted to establish the effect of using a skin care product of the present invention by applying a skin care composition comprising a peptide, in this case, Pal KTTKS, with an applicator comprising a magnetic array and a vibration source. The study used 10 active study sites (composition applied to target skin surface using an applicator containing a magnetic array and vibration source of the present invention) versus 10 control study sites (composition applied to target skin surface using an applicator with just a magnetic array). In this example, the level of Pal KTTKS present in the extract from each tape strip was measured using HPLC and the results normalized to the protein level measured on the tape strip.
This method provides a suitable means of measuring the amount of skin care active present in skin, and comparing active versus passive application of the skin care active. Two identical circular areas of 7.9 cm^2 were marked on the volar forearms of volunteers. A measured dose (approximately 9 mg) of the skin care formulation (ingredients shown in Table 1) was applied to the delineated areas using a screw actuated syringe. Application was carried out in each case using purpose made applicators having a metallic aluminium skin contact surface behind which was the magnetic array. The cream was spread evenly across the entire delineated region using the applicator in a sweeping motion with a fixed speed of approximately 3.5 cm/s to mimic normal finger application. The application period was 30 seconds during which time visual inspection was used to ensure even distribution and absorption of the formulation by skin. The application area was then left uncovered for a further 30 minutes to ensure complete absorption. The application area was then wiped thoroughly to remove any surface material, followed by carrying out tape stripping.
The Tape Stripping method can be carried out using commercial pre-cut 22.1 mm tape stripping adhesive discs (D-Squame, Cuderm Corporation or equivalent) with an adhesive area of 3.8 cm^2. A 22.1 mm diameter circular region was marked at the centre of the application area. A tape stripping adhesive disc was placed over the marked area and even pressure applied using a neoprene roller, rolled ten times over the surface. The adhesive disc was removed from the skin surface in a single pulling motion using manual tweezers. To ensure even removal of the stratum corneum, subsequent discs were removed in a north, south, east and west orientation. Each adhesive disc was non-destructively analysed for relative protein content using the SquameScan™ 850 instrument (Heiland Electronics Wetzlar Germany). The adhesive disc was then immediately placed into a glass vial containing extraction solvent in preparation for subsequent analysis. Solvent extractions are conducted on each tape strip using conventional extraction methods, which are well known to those of ordinary skill in the art, and measuring the amount of niacinamide present in the extract, for example, by high performance liquid chromatography (“HPLC”) and/or mass spectrometry.
The procedure was repeated for the remaining nine strips. An additional strip was obtained from outside the area of application of the skin care formulation to serve as a blank sample.

## OC1C(O)[C@H](O)[C@@H](O)C(O)[C@H]1O (stereo in doubt) [inositol, cyclohexane-1,2,3,4,5,6-hexol]
[1]
  penetration into skin of inositol: significant increase in penetration into skin

## CCCCCCCCCCCCCCCC(=O)N[C@@H](CCCCN)C(=O)N[C@H](C(=O)N[C@H](C(=O)N[C@@H](CCCCN)C(=O)N[C@@H](CO)C(=O)O)[C@@H](C)O)[C@@H](C)O [PalKTTKS, palimitoyl-lysine-threonine-threonine-lysine-serine] (HELM PEPTIDE1{[CCCCCCCCCCCCCCCC(=O)[*:2]].K.T.T.K.S}$$$$V2.0; C-terminus assumed)
[2]
  diamagnetic susceptibility: approximately −519
[3]; Magnetic Micro array w Vibration, Mean, vs. mean of passive
  significance of mean μg PalKTTKS/μg skin of Strip 6-10: s
[3]; Magnetic Micro array w Vibration, Mean of 10 panelists
  μg PalKTTKS/μg skin of Strip 6-10: 0.02522 μg PalKTTKS/μg skin
[3]; Magnetic Micro array w Vibration, Panelist1
  μg PalKTTKS/μg skin of Strip 6-10: 0.01152 μg PalKTTKS/μg skin
[3]; Magnetic Micro array w Vibration, Panelist2
  μg PalKTTKS/μg skin of Strip 6-10: 0.02161 μg PalKTTKS/μg skin
[3]; Magnetic Micro array w Vibration, Panelist3
  μg PalKTTKS/μg skin of Strip 6-10: 0.01304 μg PalKTTKS/μg skin
[3]; Magnetic Micro array w Vibration, Panelist4
  μg PalKTTKS/μg skin of Strip 6-10: 0.0258 μg PalKTTKS/μg skin
[3]; Magnetic Micro array w Vibration, Panelist5
  μg PalKTTKS/μg skin of Strip 6-10: 0.0568 μg PalKTTKS/μg skin
[3]; Magnetic Micro array w Vibration, Panelist6
  μg PalKTTKS/μg skin of Strip 6-10: 0.04369 μg PalKTTKS/μg skin
[3]; Magnetic Micro array w Vibration, Panelist7
  μg PalKTTKS/μg skin of Strip 6-10: 0.02184 μg PalKTTKS/μg skin
[3]; Magnetic Micro array w Vibration, Panelist8
  μg PalKTTKS/μg skin of Strip 6-10: 0.02081 μg PalKTTKS/μg skin
[3]; Magnetic Micro array w Vibration, Panelist9
  μg PalKTTKS/μg skin of Strip 6-10: 0.01648 μg PalKTTKS/μg skin
[3]; Magnetic Micro array w Vibration, Panelist10
  μg PalKTTKS/μg skin of Strip 6-10: 0.02061 μg PalKTTKS/μg skin
[3]; Magnetic Micro array w/o Vibration, Mean of 10 panelists
  μg PalKTTKS/μg skin of Strip 6-10: 0.02166 μg PalKTTKS/μg skin
[3]; Magnetic Micro array w/o Vibration, Panelist1
  μg PalKTTKS/μg skin of Strip 6-10: 0.0107 μg PalKTTKS/μg skin
[3]; Magnetic Micro array w/o Vibration, Panelist2
  μg PalKTTKS/μg skin of Strip 6-10: 0.01869 μg PalKTTKS/μg skin
[3]; Magnetic Micro array w/o Vibration, Panelist3
  μg PalKTTKS/μg skin of Strip 6-10: 0.00663 μg PalKTTKS/μg skin
[3]; Magnetic Micro array w/o Vibration, Panelist4
  μg PalKTTKS/μg skin of Strip 6-10: 0.01973 μg PalKTTKS/μg skin
[3]; Magnetic Micro array w/o Vibration, Panelist5
  μg PalKTTKS/μg skin of Strip 6-10: 0.05444 μg PalKTTKS/μg skin
[3]; Magnetic Micro array w/o Vibration, Panelist6
  μg PalKTTKS/μg skin of Strip 6-10: 0.03195 μg PalKTTKS/μg skin
[3]; Magnetic Micro array w/o Vibration, Panelist7
  μg PalKTTKS/μg skin of Strip 6-10: 0.02902 μg PalKTTKS/μg skin
[3]; Magnetic Micro array w/o Vibration, Panelist8
  μg PalKTTKS/μg skin of Strip 6-10: 0.01924 μg PalKTTKS/μg skin
[3]; Magnetic Micro array w/o Vibration, Panelist9
  μg PalKTTKS/μg skin of Strip 6-10: 0.00638 μg PalKTTKS/μg skin
[3]; Magnetic Micro array w/o Vibration, Panelist10
  μg PalKTTKS/μg skin of Strip 6-10: 0.01984 μg PalKTTKS/μg skin
[3]; applicator combining magnetic array with vibration source vs. control applicator with just a magnetic array
  penetration of the active into skin: penetration of the active is enhanced
[3]; Mean
  Enhancement for strip 6-10: 1.337
[3]; Panelist1
  Enhancement for strip 6-10: 1.077
[3]; Panelist2
  Enhancement for strip 6-10: 1.156
[3]; Panelist3
  Enhancement for strip 6-10: 1.966
[3]; Panelist4
  Enhancement for strip 6-10: 1.307
[3]; Panelist5
  Enhancement for strip 6-10: 1.043
[3]; Panelist6
  Enhancement for strip 6-10: 1.367
[3]; Panelist7
  Enhancement for strip 6-10: 0.7528
[3]; Panelist8
  Enhancement for strip 6-10: 1.081
[3]; Panelist9
  Enhancement for strip 6-10: 2.582
[3]; Panelist10
  Enhancement for strip 6-10: 1.039
